Data taken from US4537967A, “1-Oxo-1,2,3,4-tetrahydro-3-isoquinoline carboxylic acid derivatives” (Wakamoto Pharmaceutical Co., Ltd., priority 1982, dated 1985).

How the values were obtained:
[1] = test system: angiotensin converting enzyme (ACE); test: Inhibition of the angiotensin-induced rise in blood pressure in rats after oral administration (illustrative test, ACE inhibitory effect); assay type: in vivo, male rats (Spraque-Dawleg); details: angiotensin I 300 ng/kg and angiotensin II 100 ng/kg i.v., maximum blood pressure rise vs control
Method: (§1) The compounds [I] according to the present invention may be expected to be useful as a […], since they have an excellent ACE inhibitory effect. This has been well evidenced by an experiment using ACE extracted from rabbit lung and purified. The ACE inhibitory effect of the compounds of the present invention was determined according to the following illustrative test and the results will be shown in the following Table 1.
In this test, male rats (Spraque-Dawleg) of 250 to 350 g in weight were used, which were raised under conditions of free access to food and water.
The day before the test, each rat was narcotized by sodium pentobarbital (50 mg/kg) injected intraperitoneally. A polyethylene tube was inserted into a vein at the groin and fixed in order to introduce angiotensin and, further, another polyethylene tube was inserted into an artery at the groin and fixed to measure the blood pressure thereof. The blood pressure was determined by the use of an electronic sphygmomanometer (Nihon Kohden Kogyo Co., Ltd. type MP-4T).
Each rat was injected with 300 ng/kg of angiotensin I and 100 ng/kg of angiotensin II through the vein at the groin and the blood pressure recorded periodically and the maximum value of the rise in the blood pressure resulting from the injection of angiotensin was determined for use as a control.
Then, the percentage of inhibitory effect was determined by orally administering 13.8 μM/kg of a compound of the invention to each rat, and injecting 300 ng/kg of angiotensin I and 100 ng/kg of angiotensin II into the vein at the groin at periods of 20, 60 or 120 minutes after the administration of the compound, with maximum blood pressures being determined by periodically measuring the blood pressure and comparing each maximum value obtained with that of the controls.

[2] = target: T1, angiotensin converting enzyme (ACE) (Oryctolagus cuniculus, UniProt P12822); test: ACE inhibition in vitro with hippuryl-L-histidine-L-leucine as substrate (method of Biochemical Pharmacology, 20, 1637 (1971)); set-up: species or system rabbit (lung); details: read-out: 50% inhibition concentration (ID50)
T1 construct: ACE extracted from rabbit lung and purified; from tissue; host or cells: rabbit lung
T1 sequence (P12822 34-1310): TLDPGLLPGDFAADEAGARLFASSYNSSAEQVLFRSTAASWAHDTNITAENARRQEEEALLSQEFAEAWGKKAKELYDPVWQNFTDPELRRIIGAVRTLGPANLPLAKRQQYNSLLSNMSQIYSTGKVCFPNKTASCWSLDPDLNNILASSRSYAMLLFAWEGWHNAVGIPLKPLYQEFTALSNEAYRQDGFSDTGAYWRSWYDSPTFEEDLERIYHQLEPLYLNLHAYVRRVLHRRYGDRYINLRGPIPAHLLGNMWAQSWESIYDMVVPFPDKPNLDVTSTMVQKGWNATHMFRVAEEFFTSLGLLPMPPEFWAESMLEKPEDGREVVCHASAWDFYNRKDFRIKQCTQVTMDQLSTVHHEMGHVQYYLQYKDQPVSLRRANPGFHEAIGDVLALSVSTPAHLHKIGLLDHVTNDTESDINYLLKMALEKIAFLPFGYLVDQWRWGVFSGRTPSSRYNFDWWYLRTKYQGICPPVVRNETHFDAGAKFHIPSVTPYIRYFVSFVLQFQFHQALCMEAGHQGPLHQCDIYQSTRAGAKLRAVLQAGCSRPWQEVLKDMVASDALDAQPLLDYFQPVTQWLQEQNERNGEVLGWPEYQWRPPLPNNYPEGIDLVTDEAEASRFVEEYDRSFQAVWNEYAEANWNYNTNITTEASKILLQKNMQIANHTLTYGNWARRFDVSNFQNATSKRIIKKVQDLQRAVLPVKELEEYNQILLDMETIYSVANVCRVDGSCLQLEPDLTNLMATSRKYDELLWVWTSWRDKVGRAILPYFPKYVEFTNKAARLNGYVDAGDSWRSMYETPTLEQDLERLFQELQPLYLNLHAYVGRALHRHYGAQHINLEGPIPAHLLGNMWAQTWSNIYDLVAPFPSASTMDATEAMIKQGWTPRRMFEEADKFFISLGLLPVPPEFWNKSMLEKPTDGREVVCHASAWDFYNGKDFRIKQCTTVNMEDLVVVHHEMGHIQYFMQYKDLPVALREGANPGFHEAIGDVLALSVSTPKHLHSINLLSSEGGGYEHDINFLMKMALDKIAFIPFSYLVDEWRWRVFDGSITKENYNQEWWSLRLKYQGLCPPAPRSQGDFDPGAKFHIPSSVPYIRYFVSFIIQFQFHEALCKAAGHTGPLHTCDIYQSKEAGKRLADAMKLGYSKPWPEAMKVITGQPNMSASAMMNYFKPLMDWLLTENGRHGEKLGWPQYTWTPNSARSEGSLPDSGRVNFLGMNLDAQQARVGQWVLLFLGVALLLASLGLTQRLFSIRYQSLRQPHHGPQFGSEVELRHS
Method: as §1
The compounds of the present invention act to inhibite angiotensin converting enzyme which converts angiotensin I, produced by the action of the enzyme renin from angiotensinogen, to angiotensin II which acts as a pressor agent. Therefore, these compounds may be expected to be effective in the treatment of hypertension.

IC50 [2]	SMILES	Inhibition (%) ([1]; 20 min after oral 13.8 μM/kg)	Inhibition (%) ([1]; 60 min after oral 13.8 μM/kg)	Inhibition (%) ([1]; 120 min after oral 13.8 μM/kg)
51 nM	O=C(O)C1Cc2ccccc2C(=O)N1C(=O)CCS (centres unmarked) [Example 1, 2-(3-mercaptopropionyl)-1-oxo-1,2,3,4-tetrahydro-3-isoquinoline carboxylic acid]	81%	78%	59%
73 nM	CC(CS)C(=O)N1C(=O)c2ccccc2CC1C(=O)O (centres unmarked) [Example 2, 2-(3-mercapto-2-methylpropionyl)-1-oxo-1,2,3,4-tetrahydro-3-isoquinoline carboxylic acid]	83%	70%	72%
